Several values for one entry are separate records, joined by “and”; a condition that tells them apart may be missing. Equal values may be shown once. Inconclusive results and toxic doses are left out. How the source made its calls: active means survival T/C of 150% or more; inactive means T/C below 125% in these data.
Tested on: P388 leukemia ip, CD2F1 mice, survival T/C
Experiment: NCI In Vivo Anticancer Drug Screen. Data for tumor model P388 Leukemia (intraperitoneal) in CD2F1 (CDF1) mice
Settings: endpoint: median survival time, higher = longer survival
In short: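 Mice carrying the transplanted tumor received test compound or vehicle. Survival was recorded in each group, and the value is the treated-group measurement divided by that of the vehicle-treated control group.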

[1] = dose: 50.0 mg/kg/injection, schedule: Q01DX009 (ip), vehicle: saline
[2] = dose: 100.0 mg/kg/injection, schedule: Q01DX009 (ip), vehicle: saline
[3] = dose: 200.0 mg/kg/injection, schedule: Q01DX009 (ip), vehicle: saline
[4] = dose: 100.0 mg/kg/injection, schedule: Q04DX002 (ip), vehicle: Klucel (hydroxypropylcellulose) (HPC)
[5] = dose: 200.0 mg/kg/injection, schedule: Q04DX002 (ip), vehicle: Klucel (hydroxypropylcellulose) (HPC)
[6] = dose: 400.0 mg/kg/injection, schedule: Q04DX002 (ip), vehicle: Klucel (hydroxypropylcellulose) (HPC)
[7] = dose: 50.0 mg/kg/injection, schedule: Q01DX005 (ip), vehicle: saline with Tween-80
[8] = dose: 100.0 mg/kg/injection, schedule: Q01DX005 (ip), vehicle: saline with Tween-80

Measured: T/C

CN(CC(=O)N1CCOCC1)Cc1c(Cl)cccc1NC(=O)c1ccccc1
inactive: [1] 100 % of control | [2] 103 % of control | [3] 105 % of control

O=C1CS/C(=N/C(=O)Nc2ccc(Cl)cc2)N1
inactive: dose: 25.0 mg/kg/injection, schedule: Q04DX002 (ip), vehicle: Klucel (hydroxypropylcellulose) (HPC) 90 % of control | dose: 50.0 mg/kg/injection, schedule: Q04DX002 (ip), vehicle: Klucel (hydroxypropylcellulose) (HPC) 88 % of control | [4] 91 % of control | [5] 95 % of control | [6] 87 % of control

O=C1NC(=O)C2=C1CCCC2O (centres undefined)
inactive: dose: 6.25 mg/kg/injection, schedule: Q01DX009 (ip), vehicle: saline 102 % of control | dose: 12.5 mg/kg/injection, schedule: Q01DX009 (ip), vehicle: saline 101 % of control | dose: 25.0 mg/kg/injection, schedule: Q01DX009 (ip), vehicle: saline 110 % of control | [1] 102 % of control | [2] 107 % of control | [3] 118 % of control

CCOC(=O)c1ccc(NC(=O)Oc2ccc(NC(C)=O)cc2)cc1
inactive: dose: 60.0 mg/kg/injection, schedule: Q01DX005 (ip), vehicle: Klucel (hydroxypropylcellulose) (HPC) 98 % of control | dose: 120.0 mg/kg/injection, schedule: Q01DX005 (ip), vehicle: Klucel (hydroxypropylcellulose) (HPC) 92 % of control | dose: 240.0 mg/kg/injection, schedule: Q01DX005 (ip), vehicle: Klucel (hydroxypropylcellulose) (HPC) 92 % of control

Cc1c(COC(=O)NC2CCCCC2)c(COC(=O)NC2CCCCC2)c2c3ccccc3c3ccccc3n12
inactive: dose: 12.5 mg/kg/injection, schedule: Q01DX009 (ip), vehicle: distilled water + Tween-80 106 % of control | dose: 25.0 mg/kg/injection, schedule: Q01DX009 (ip), vehicle: distilled water + Tween-80 100 % of control and 93 % of control | dose: 50.0 mg/kg/injection, schedule: Q01DX009 (ip), vehicle: distilled water + Tween-80 101 % of control and 106 % of control | dose: 100.0 mg/kg/injection, schedule: Q01DX009 (ip), vehicle: distilled water + Tween-80 101 % of control and 110 % of control | dose: 200.0 mg/kg/injection, schedule: Q01DX009 (ip), vehicle: distilled water + Tween-80 110 % of control

O=C(O)c1ccc(Oc2nc3ccccc3s2)cc1
inactive: dose: 50.0 mg/kg/injection, schedule: Q04DX003 (ip), vehicle: saline with Tween-80 91 % of control | dose: 100.0 mg/kg/injection, schedule: Q04DX003 (ip), vehicle: saline with Tween-80 91 % of control

Cc1ccc([N+](=O)[O-])cc1NC(=O)Oc1cc(C)c(Br)c(C)c1
inactive: dose: 50.0 mg/kg/injection, schedule: Q01DX009 (ip), vehicle: saline with Tween-80 106 % of control | dose: 100.0 mg/kg/injection, schedule: Q01DX009 (ip), vehicle: saline with Tween-80 106 % of control | dose: 200.0 mg/kg/injection, schedule: Q01DX009 (ip), vehicle: saline with Tween-80 112 % of control

O=C(C[P+](c1ccccc1)(c1ccccc1)c1ccccc1)c1ccccc1
inactive: dose: 60.0 mg/kg/injection, schedule: Q01DX005 (ip), vehicle: saline with Tween-80 105 % of control | dose: 120.0 mg/kg/injection, schedule: Q01DX005 (ip), vehicle: saline with Tween-80 108 % of control | dose: 240.0 mg/kg/injection, schedule: Q01DX005 (ip), vehicle: saline with Tween-80 96 % of control

O=C(c1ccccc1)C1CCCN(CCc2ccccc2)C1 (centres undefined)
inactive: [7] 108 % of control | [8] 109 % of control

COc1c(NC(C)=O)c2c(c([N+](=O)[O-])c1OC)C(=O)OC2
inactive: dose: 50.0 mg/kg/injection, schedule: Q01DX005 (ip), vehicle: Klucel (hydroxypropylcellulose) (HPC) 106 % of control | dose: 100.0 mg/kg/injection, schedule: Q01DX005 (ip), vehicle: Klucel (hydroxypropylcellulose) (HPC) 104 % of control | dose: 200.0 mg/kg/injection, schedule: Q01DX005 (ip), vehicle: Klucel (hydroxypropylcellulose) (HPC) 110 % of control

COC(=O)CC(OC)c1nc(C(=O)OC)c(C)c(=O)[nH]1 (centres undefined)
inactive: dose: 4.0 mg/kg/injection, schedule: Q01DX009 (ip), vehicle: water 111 % of control | dose: 8.0 mg/kg/injection, schedule: Q01DX009 (ip), vehicle: water 101 % of control | dose: 16.0 mg/kg/injection, schedule: Q01DX009 (ip), vehicle: water 96 % of control | dose: 32.0 mg/kg/injection, schedule: Q01DX009 (ip), vehicle: water 99 % of control | dose: 64.0 mg/kg/injection, schedule: Q01DX009 (ip), vehicle: water 102 % of control | dose: 128.0 mg/kg/injection, schedule: Q01DX009 (ip), vehicle: water 105 % of control

CCC/C(=N\NC(=S)N1CCCCCC1)c1ccccn1
inactive: dose: 25.0 mg/kg/injection, schedule: Q01DX005 (ip), vehicle: saline with Tween-80 117 % of control | [7] 124 % of control

O=C(O)Cc1c[nH]c2c(Cl)ccc(Cl)c12
inactive: dose: 100.0 mg/kg/injection, schedule: Q01DX001 (ip), vehicle: saline with Tween-80 101 % of control | dose: 200.0 mg/kg/injection, schedule: Q01DX001 (ip), vehicle: saline with Tween-80 100 % of control

c1cc2c3c(cccc3c1)C(C1Cc3cccc4cccc1c34)C2 (centres undefined)
inactive: dose: 50.0 mg/kg/injection, schedule: Q01DX009 (ip), vehicle: Klucel (hydroxypropylcellulose) (HPC) 97 % of control | dose: 100.0 mg/kg/injection, schedule: Q01DX009 (ip), vehicle: Klucel (hydroxypropylcellulose) (HPC) 100 % of control | dose: 200.0 mg/kg/injection, schedule: Q01DX009 (ip), vehicle: Klucel (hydroxypropylcellulose) (HPC) 88 % of control

C=C(C)CN(CCC#N)CC(=C)C
inactive: [7] 102 % of control | [8] 105 % of control | dose: 200.0 mg/kg/injection, schedule: Q01DX005 (ip), vehicle: saline with Tween-80 101 % of control

CSc1cccc(NC(=O)Oc2ccc([N+](=O)[O-])cc2Cl)c1
inactive: dose: 6.25 mg/kg/injection, schedule: Q01DX009 (ip), vehicle: DMSO 100 % of control | dose: 12.5 mg/kg/injection, schedule: Q01DX009 (ip), vehicle: DMSO 93 % of control

Cc1sc(C)c2c1C[Se]Cc1c(C)sc(C)c1C[Se]C2
inactive: dose: 400.0 mg/kg/injection, schedule: Q01DX001 (ip), vehicle: saline with Tween-80 87 % of control

C=CCC1C/C=C\COC(=O)CC(C)(C)CC1=O (centres undefined)
inactive: dose: 25.0 mg/kg/injection, schedule: Q04DX003 (ip), vehicle: saline 100 % of control | dose: 50.0 mg/kg/injection, schedule: Q04DX003 (ip), vehicle: saline 102 % of control | dose: 100.0 mg/kg/injection, schedule: Q04DX003 (ip), vehicle: saline 102 % of control | dose: 400.0 mg/kg/injection, schedule: Q04DX003 (ip), vehicle: saline 99 % of control

COc1ccc(NCCc2ccc(-n3ncc(C(=O)NN)c3N)nn2)cc1OC
inactive: dose: 75.0 mg/kg/injection, schedule: Q01DX005 (ip), vehicle: other 93 % of control | dose: 150.0 mg/kg/injection, schedule: Q01DX005 (ip), vehicle: other 93 % of control | dose: 250.0 mg/kg/injection, schedule: Q01DX005 (oral), vehicle: water 100 % of control | dose: 500.0 mg/kg/injection, schedule: Q01DX005 (oral), vehicle: water 107 % of control | dose: 1000.0 mg/kg/injection, schedule: Q01DX005 (oral), vehicle: water 110 % of control

CCCCNC(=S)NC(c1ccc(OC)cc1)C(CC)c1ccc(OC)cc1 (centres undefined)
inactive: dose: 100.0 mg/kg/injection, schedule: Q04DX002 (ip), vehicle: saline with Tween-80 90 % of control | dose: 200.0 mg/kg/injection, schedule: Q04DX002 (ip), vehicle: saline with Tween-80 88 % of control | dose: 400.0 mg/kg/injection, schedule: Q04DX002 (ip), vehicle: saline with Tween-80 90 % of control

CCCCOC1CCC2(C)C(=CCC3C2CCC2(C)C(C(C)CCCC(C)C)CCC32)C1 (centres undefined)
inactive: dose: 100.0 mg/kg/injection, schedule: Q04DX003 (sc), vehicle: steriod suspending solution 104 % of control | dose: 200.0 mg/kg/injection, schedule: Q04DX003 (sc), vehicle: steriod suspending solution 100 % of control | dose: 400.0 mg/kg/injection, schedule: Q04DX003 (sc), vehicle: steriod suspending solution 100 % of control

CCOP(=O)(O)C1CCCC(C)[N-]1.CCOP(=O)(O)C1CCCC(C)[N-]1.[Mn+2] (centres undefined)
inactive: dose: 100.0 mg/kg/injection, schedule: Q04DX003 (ip), vehicle: Klucel (hydroxypropylcellulose) (HPC) 100 % of control | dose: 200.0 mg/kg/injection, schedule: Q04DX003 (ip), vehicle: Klucel (hydroxypropylcellulose) (HPC) 111 % of control

C[C@@H]1CN(c2ccccc2)C[C@@H](C)OS(=O)O1
inactive: [4] 104 % of control | [5] 97 % of control | [6] 100 % of control

— PubChem BioAssay AID330 (DTP/NCI, 2004)
